The text below walks through data of publication PMC8327158, “PEGylated AdipoRon derivatives improve glucose and lipid metabolism under insulinopenic and high-fat diet conditions” (Journal of Lipid Research, 2021).

For series [1], the system named is AMPK and ACC phosphorylation. The series is described as follows: Western blot of AMPK and ACC phosphorylation in liver and subcutaneous adipose tissue. It counts as in vivo, mouse. As to the method: Protein was extracted from the adipose tissue by homogenization in PBS supplemented with 1 mM EDTA, 20 mM NaF, 2 mM Na3VO4, and protease inhibitor cocktail. 5× RIPA buffer was added to the homogenate for a final concentration of 10 mM Tris-HCl, 2 mM EDTA, 0.3% NP40, 0.3% deoxycholate, 0.1% SDS, and 140 mM NaCl, pH 7.4. The sample was centrifuged at 10,000 g for 5 min. In total, 20–50 μg/lane of supernatant protein was separated by SDS-PAGE (NP0335BOX, Thermo Fisher) and transferred to nitrocellulose membrane. The blots were then incubated overnight at 4°C with primary antibodies (1:1,000) in a 1% BSA TBST-blocking solution. Primary antibodies are listed in supplemental Table S3. Primary antibodies were detected using secondary antibodies labeled with infrared dyes emitting at 700 nm or 800 nm (1:5,000, Li-Cor Bioscience 925-68073 and 926-32213, respectively) The Odyssey Infrared Imager was used to visualized western blots with Li-Cor IRdye secondary antibodies.
In general terms: Immunoblotting shows a protein as a band on a membrane.

Series [2] concerns liver transcriptome of HFD-fed mice. The series is described as follows: RNA-seq of liver of HFD-fed mice. It counts as in vivo, mouse. As to the method: RNA-sequence was performed by Novogene (Sacramento, CA) by utilizing isolated RNA. After the QC procedures, mRNA from eukaryotic organisms is enriched from total RNA using oligo(dT) beads. For prokaryotic samples, rRNA is removed using a specialized kit that leaves the mRNA. The mRNA from either eukaryotic or prokaryotic sources was then fragmented randomly in fragmentation buffer, followed by cDNA synthesis using random hexamers and reverse transcriptase. After first-strand synthesis, a custom second-strand synthesis buffer (Illumina) is added, with dNTPs, RNase H, and Escherichia coli polymerase I to generate the second strand by nick-translation, and AMPure XP beads are used to purify the cDNA. The final cDNA library is ready after a round of purification, terminal repair, A-tailing, ligation of sequencing adapters, size selection, and PCR enrichment. Library concentration was first quantified using a Qubit 2.0 fluorometer (Life Technologies) and then diluted to […] before checking insert size on an Agilent 2100 and quantifying to greater accuracy by quantitative PCR (Q-PCR) (library activity >2 nM). Libraries are fed into Novaseq6000 machines according to activity and expected data volume.
Differential expression of genes between AdipoRon-treated group and AdipoRonPEG5-treated group was analyzed by use of genes having an fpkm of ≥0 in all samples. Genes whose expression was “between 1.1 and 0.9 fold change” or “more than 1.1 fold up- “or “less than 0.9 fold down-“ regulated in liver RNA from control (n = 3) versus AdipoRon (n = 3) versus AdipoRonPEG5 group constituted “nc”, “up,” and “down” signatures. Gene expression was analyzed using Gene Ontology analysis (GO Consortium) and GenePattern software (Broad Institute).

Series [3] in a line: Liver drug concentration and bioavailability after IP dosing. It counts as in vivo, C57BL/6J mice. Conditions: IP 20 mg/kg; for liver Cmax: 8-week-old C57BL/6J mice, mean ± SEM. The method, then: (§1) Two groups of male C57BL/6J mice (21 mice/group) at 8 weeks of age were dosed IP with 20 mg/kg AdipoRon or AdipoRonPEG5, 0.2 ml/mouse formulated as 10% DMSO/10% Cremophor/20% PEG400/60% PBS. Whole blood was harvested at seven time points post IP dosing, 10 min, 30 min, 90 min, 180 min, 360 min, 960 min, and 1,440 min. Three mice were euthanized at each time point. Plasma was processed from whole blood by centrifugation of the ACD-treated blood for 10′ at 10,000 rpm in a standard centrifuge. Additionally, the liver was harvested. The tissues were weighed and snap frozen in liquid nitrogen.
To measure liver drug concentration and bioavailability, we prepared standards by adding 98 μl blank liver homogenate to an Eppendorf, spiked with 2 μl of initial standard. For QCs, we added 98.8 μl blank liver homogenate to an Eppendorf, spiked with 1.2 μl of initial standard. For samples, we mixed 100 μl liver homogenate with 200 μl of methanol containing 0.15% formic acid and 75 ng/ml IS (IS final conc. = 50 ng/ml). The samples were vortexed 15 s, incubated at room temp for 10′, and spun 2× 13,200 rpm in a standard microcentrifuge. The supernatant was then analyzed by LC-MS/MS.

Series [4] is described as follows: Plasma pharmacokinetics after IP dosing. It counts as in vivo, C57BL/6J mice. The settings on record: IP 20 mg/kg; for Cmax: male, mouse, plasma, 8-week-old C57BL/6J mice, mean ± SEM. The method, then: as §1
To quantify plasma drug concentration and PK, we prepared standards by adding 98 μl blank plasma (BioIVT) to an eppendorf. These were spiked with 2 μl of initial standard. For QCs, we added 98.8 μl blank plasma to Eppendorf, spiked with 1.2 μl of initial standard. For samples, we mixed 100 μl plasma with 200 μl of methanol containing 0.15% formic acid and 75 ng/ml IS (IS final conc. = 50 ng/ml). The samples were vortexed 15 s, incubated at room temp for 10′, and spun 2× 13,200 rpm in a standard microcentrifuge. The supernatant was then analyzed by LC-MS/MS.

The subject of series [5] is INS-1 β-cells. The series is described as follows: Palmitate-induced cell death protection assay (PI fluorescence plate reader). The settings on record: PA 0.25 mM, 24 h. It counts as cell-based, rat. The method, then: A 7.1 mM palmitic acid stock solution was prepared in 95% ethanol by incubating at 37°C. In parallel, 2% fatty-acid-free BSA was solubilized in sterile nanopure water at 37°C. The palmitic acid/BSA complex solution was then prepared by incubating the components in a molar ratio of 5:1 at 37°C in a shaking water bath for 1 h and was used directly for INS-1 stimulation experiments. Control cultures were carried out in the presence of BSA/ethanol in RPMI without palmitic acid.
Quantification of β-cell death by PI staining was carried out on a fluorescence plate reader. Following a 2 h preincubation under serum-free conditions, INS-1 cells (60k cells/well, 96-well plate (COSTAR ref # 3603)) were kept for 24 h in Phenol Red-free FBS-free RPMI 0.5% BSA as a control or containing 0.25 mM PA-BSA in the presence or absence of treatment. Cells were stained for 10 min at 4°C with propidium iodide (PI) at 1 μg/ml (added to the existing media to avoid loss of dead cells). PI fluorescence intensity was measured with a plate reader (PHERAstar, BMG Labtech).

The subject of series [6] is INS-1 cells. The series can be described thus: qPCR gene expression in INS-1 cells. The format is cell-based, rat. The settings on record: for genes related to insulin secretion and β-cell differentiation transcription factors: absence of palmitate. (In general: Quantitative PCR measures a nucleic acid by following its amplification.)

As a reminder, the Cmax is the maximum level reached in the sampled fluid or tissue. As to `O=C(COc1ccc(C(=O)c2ccccc2)cc1)NC1CCN(Cc2ccc(OCCOCCOCCOCCOCCO)cc2)CC1` [AdipoRonPEG5], in series [1] (single treatment), the “ACC phosphorylation in the subcutaneous adipose tissue” value is listed as “enhanced” and the “AMPK pathway in the liver” value is given as “activated”. Further, in series [2] (HFD 4 weeks, 5 mg/kg 5 days), the “AdipoR1 / AdipoR2 signaling pathway genes” value is on record as “preference toward amplifying AdipoR1 signaling pathway”; the “gluconeogenesis-related genes in the liver” value is on record as “inhibitory effect”; the “triglyceride- and glucose-metabolism-related genes incl. scd1, pck1” value is on record as “downregulated”; the “upregulation of genes of the family of ceramidases” value was “highest”. The “glutathione S-transferases Gstm1 and Gstm2” value in series [2] (top 30 genes) was “prominent increases”. For the same compound, in series [3], the “higher bioavailability in the liver than AdipoRon” value is listed as “eightfold” and the “liver Cmax” value was 25509.73 ± 1436.44 ng/mL. Also, in series [4], the “increase in maximal plasma concentration compared with AdipoRon” value is “threefold” and the peak level (Cmax) was 6510 ± 685 ng/mL. Further, the “reduction of PA-induced apoptosis” value in series [5] (20 μM) is given as about 50%. Besides, the “protective activity against PA-induced cell death” value in series [5] (dose range) is recorded as “potent antiapoptotic activity”. The “genes related to insulin secretion and β-cell differentiation transcription factors” value in series [6] (20 μM) is given as “suppress”. The “expression of Ins1, Nkx6-1 and Kcnj11” value in series [6] (20 μM, presence of palmitate) is “significantly increased”. Besides, in series [6] (PA-stressed INS-1 cells), the “expression of Hif-1α” value is listed as “elevates”.

`O=C(COc1ccc(C(=O)c2ccccc2)cc1)NC1CCN(Cc2ccccc2)CC1` [AdipoRon]: the “p-AMPK levels in the liver, AdipoRon versus AdipoRonPEG5” value in series [1] (HFD-induced obese mice) is “higher”. In addition, in series [2] (HFD 4 weeks, 5 mg/kg 5 days), the “AdipoR1 / AdipoR2 signaling pathway genes” value was “sided with AdipoR2 signaling” and the “upregulation of genes of the family of ceramidases” value is “to a lesser extent”. For the same compound, the “lipogenesis genes Acly and Scd1” value in series [2] (top 30 genes) is recorded as “highly upregulated”. The “liver Cmax” value in series [3] turned out to be 3169.30 ± 1437.09 ng/mL. In series [4], this compound came in with a Cmax of 2170 ± 196 ng/mL. Besides, the “protection from PA-induced cell death” value in series [5] (20 μM) is listed as “further modest increase in protection”. In addition, the “genes related to insulin secretion and β-cell differentiation transcription factors” value in series [6] (20 μM) was “suppress”.
